In the OPERA property sets (Mansouri et al. 2018) one finds logP data, which are given here for 78 molecules.

Where a SMILES comes first, the peptide text is derived from it.

For `CC(C)NCC(O)COc1ccc(-c2nc(-c3cccs3)c[nH]2)cc1` (stereo not drawn), the log partition coefficient (logP) – broadly, the decadic logarithm of the partition coefficient of the neutral form, usually between octanol and water – was found to be 3.2.
The same measure for `CCOC(=O)OC(C)C1=CCSC2C(NC(=O)C(=NOC)c3csc(N)n3)C(=O)N12` (stereo not drawn): 0.96; for `O=C1c2ccc(C(F)(F)F)cc2OCN1CCO[N+](=O)[O-]`: 3.01.
Under `Cc1nc2ccccc2c(=O)n1CC(=O)N1CCOCC1` stands 0.36; under `CN(C)CCCC(c1ccccc1)c1ccccc1`, 4.91.
The same measure for `CSCCC(N)C(=O)NC(C(=O)O)C(C)C` (stereo not drawn) (H-Met-Val-OH; configuration not given here): -2.53.
The molecule `CC1CN(CC2CN=C(N)O2)CC(C)O1` (stereo not drawn) showed a logP of 0.16.
Regarding `COc1ccc2c(C)cc(=O)oc2c1`, the logP was determined as 1.89.
`CCCN(C)CC(=O)Nc1c(C)cccc1C` displayed a logP of 2.28.
Under `CC1(C)N(O)C(c2ccc([N+](=O)[O-])cc2)=[N+]([O-])C1(C)C` stands 1.68; under `Nc1ccc(S(=O)(=O)Nc2cccc3[nH]ccc23)cc1`, 1.41.
`CC(C)Nc1nc(=O)n(C(C)C)c(=O)n1C` displayed a log partition coefficient (logP) of 0.53.
Consider `COc1c2c(cc3c1-c1ccc(OC)c(=O)cc1C(NC(C)=O)CC3)OCO2` (stereo not drawn), for which the logP is 1.6.
Under `Cc1cccc(CNc2[nH]cnc3ncnc2-3)c1` stands 2.62.
Under `N#CNc1ccccc1` stands 1.87.
Under `O=S(=O)(c1ccccc1)C(F)(F)F` stands 2.68; under `Fc1ccccc1CNc1[nH]cnc2ncnc1-2`, 2.27.
In turn, `CNC(=S)OCCn1c([N+](=O)[O-])cnc1C` displayed a lipophilicity (logP) of 1.12.
With `CCNc1nc(O)nc(NC(C)(C)C)n1`, the logP turned out to be 3.53.
The molecule `Nc1nnnn1-c1cccc(O)c1` displayed a logP of 0.56.
Take `Nc1ccc(S(=O)(=O)Nc2cc(Br)cc3[nH]ccc23)cc1`: the logP stood at 2.77.
Under `C=CCN(N=O)C(=O)N(CCC)CCCCC(NC(C)=O)C(=O)NCc1ccccc1` (stereo not drawn) stands 2.11.
The same measure for `Cc1cc(=O)oc2c1c(C)cc1occ(C)c12`: 3.04.
For `Nc1nnnn1-c1ccc(Cl)cc1`, the logP stood at 1.41.
In turn, `O=c1[nH]c2cc(Cl)ccc2c(O)c1-c1cccc(Oc2ccccc2)c1` had a logP of 5.1.
As to `CS(=O)c1ccc2c(c1)C(c1ccccc1)=NCC(=O)N2` (stereo not drawn), the logP is 0.8.
Under `NC(Cc1ccccc1)C(=O)NC(Cc1ccccc1)C(=O)NC(Cc1ccccc1)C(=O)NC(Cc1ccccc1)C(=O)O` (stereo not drawn) (H-FFFF-OH; configuration not given here) stands 1.63; under `Cc1coc2c1c(C)cc1oc(=O)cc(C)c12`, 3.28; under `CC(=O)Oc1coc(CBr)cc1=O`, 0.51.
As for `c1ccc(CN2CCN(CCCOn3nnc4ccccc43)CC2)cc1`, the logP stood at 4.
Under `CC(=O)OC1C(CCl)OC(n2cc(F)c(=O)[nH]c2=O)C1OC(C)=O` (stereo not drawn) stands 0.38; under `CC1(C(=O)O)CSC(c2ccc(O)cc2O)=N1` (stereo not drawn), 1.3; under `Clc1ccc(C2(Cn3cncn3)OCC3(CCC4OC4C3)CO2)c(Cl)c1` (stereo not drawn), 1.87.
Under `CCCN(CCc1cccs1)C1CCc2c(O)cccc2C1` (stereo not drawn) stands 4.7.
For the molecule `Cc1cc(CCCCCCCOc2ccc(C3=NCCO3)cc2)on1`, the lipophilicity (logP) worked out at 4.79.
Under `CC(=O)NC(CCCN(Cc1ccccc1)C(=O)N(CCCl)N=O)C(=O)NCc1ccccc1` (stereo not drawn) stands 1.92; under `Cc1cc(=O)oc2c1ccc1occ(C)c12`, 3.08.
Under `CCNC(=NC#N)NS(=O)(=O)c1cnccc1NC1CCCCCCC1` stands 2.05; under `O=C1C=C(N2CCOCC2)CN1c1ccc(Cl)cc1`, 1.9.
Under `CCCc1nc(NCC)nc(N2CCOCC2)n1` stands 2.23.
`Nc1nnnn1-c1ccc2ccccc2c1` yielded a logP of 2.08.
`CC(c1ccccc1)N1CC(N2CCOCC2)=NC1=O` (stereo not drawn) registered a logP of 0.8.
For the molecule `NC(=O)c1cccc(Cn2cccn2)c1`, the logP was 0.71.
The molecule `NC(=S)NN=C(c1cccc([N+](=O)[O-])c1)c1ccccn1` showed a lipophilicity (logP) of 1.9.
Under `NC(Cc1c[nH]c2ccccc12)C(=O)NC(Cc1c[nH]c2ccccc12)C(=O)NC(Cc1c[nH]c2ccccc12)C(=O)O` (stereo not drawn) (H-Trp-Trp-Trp-OH; configuration not given here) stands 0.66; under `CNc1ncnc2c1ncn2Cc1ccccc1F`, 1.86; under `CNc1ccc2cc3ccc4c(c3nc2c1CO)COCN4S(C)(=O)=O`, 1.2.
The same measure for `NC(=O)C(CCN1CCCCC1)c1ccccc1Cl` (stereo not drawn): 2.46.
Under `COC(=O)CNC(=O)Cn1c(C)nc2ccccc2c1=O` stands 0.4.
For the molecule `NCCCOC1Cc2c(O)cc(O)cc2OC1c1ccc(O)c(O)c1` (stereo not drawn), the log partition coefficient (logP) was 0.52.
For the molecule `CN(C)CCC(c1ccccc1)c1ccccc1`, the logP amounted to 4.31.
Turning to `CN1CC(O)N(C(=O)NC2CCCC2)C1=O` (stereo not drawn), the logP was 1.47.
The same measure for `Nc1cccc(Cn2cnc3ccccc32)c1`: 1.92; for `C=C(C)C(=O)OCC(COC(=O)C(=C)C)COC(=O)C(=C)C`: 3.53; for `NC1CCN(c2nc3c(cc2F)c(=O)c(C(=O)O)cn3-c2ccc(F)cc2F)C1` (stereo not drawn): -0.46.
Under `CCNc1ccc(NC(=O)N(C)OC)cc1` stands 0.83.
The same measure for `CC12CC(Cl)(Cl)C(CC1(Cl)Cl)C2(CCl)C(Cl)Cl` (stereo not drawn): 5.49; for `O=C1CNC(=O)C(Cc2c[nH]c3ccccc23)N1` (stereo not drawn): 0.07; for `COc1c2ccccc2cc2ccccc12`: 4.36.
`COC(=O)C1=C(C)NC(C)=C(C(=O)OCC=Cc2ccccc2)C1c1cccc([N+](=O)[O-])c1` (stereo not drawn) had a logP of 5.69.
For the molecule `COc1cc(OC)c(C=[N+]([O-])C(C)(C)C)c(OC)c1`, the logP stood at 1.2.
The same measure for `Cc1c(C)c2cc3c(C)coc3nc2oc1=O`: 2.25; for `CC(=O)OCc1ccccn1`: 0.39; for `Cc1cc2c(s1)Nc1ccccc1N=C2N1CCN(C)CC1`: 3.
Turning to `Cc1ccccc1C1CCc2c(C(=O)N(C)C)cn3c(C)c(C)nc3c2O1` (stereo not drawn), the logP is 3.5.
`COC(=O)C1=C(C)NC(C)=C(C(=O)OC)C1c1cccc2c1OCO2` had a logP of 3.46.
`COc1ccc(CCNCC(O)COc2ccc(-c3nc(-c4cccs4)c[nH]3)cc2C)cc1OC` (stereo not drawn) showed a logP of 4.8.
As for `COc1ccc(C2Cc3c(C)cccc3N(CCN(C)C)C(=O)C2OC(C)=O)cc1` (stereo not drawn), the logP was found to be 3.7.
Under `CC(C)NC(=NC#N)NS(=O)(=O)c1cnccc1Nc1ccc(Cl)cc1` stands 2.37; under `S=c1nccc[nH]1`, -1.11.
`CNC(C)Cc1ccc(OC)cc1` (stereo not drawn): the logP was found to be 1.91.
In the case of `COC(=O)C(C)NP(=O)(OCC1C=CC(n2cc(C)c(=O)[nH]c2=O)O1)Oc1ccc(C#N)cc1` (stereo not drawn), the lipophilicity (logP) was 0.91.
The molecule `Cc1ccc(CO)c(C=NNC(=O)c2ccccc2)c1O` showed a lipophilicity (logP) of 3.01.
`CC(C)(C)[N+]([O-])=Cc1ccc(O)cc1` registered a logP of 0.6.
Under `COC(=O)C(C)=CC1C(C(=O)OCc2cccc(COc3ccccc3)c2)C1(C)C` (stereo not drawn) stands 6.06; under `COCCOC(=O)C1=C(C)NC(C)=C(C(=O)OCCOC)C1c1cccc2c1OCO2`, 2.93; under `CN1CC(O)N(C(=O)Nc2ccccc2)C1=O` (stereo not drawn), 1.44.
Consider `Nc1nnnn1-c1ccc(O)cc1`, for which the logP amounted to 0.33.
